Results from patent EP4458820A1 (Shanghai Institute of Materia Medica, Chinese Academy of …, priority 2021, dated 2023).
pEC50: −log10 of the molar value.

Experiments:
THR-β = target: T1, THR-β (Homo sapiens, UniProt P10828); test: in vitro THR β agonist activity at the molecular level (AlphaScreen detection); format: biochemical; settings: in vitro molecular evaluation system; for Selectivity: THR-β versus THR-α; for Emax: read-out: THR-β Rel % Activity of T3
T1 construct: GST; made in house
T1 sequence (P10828 1-461): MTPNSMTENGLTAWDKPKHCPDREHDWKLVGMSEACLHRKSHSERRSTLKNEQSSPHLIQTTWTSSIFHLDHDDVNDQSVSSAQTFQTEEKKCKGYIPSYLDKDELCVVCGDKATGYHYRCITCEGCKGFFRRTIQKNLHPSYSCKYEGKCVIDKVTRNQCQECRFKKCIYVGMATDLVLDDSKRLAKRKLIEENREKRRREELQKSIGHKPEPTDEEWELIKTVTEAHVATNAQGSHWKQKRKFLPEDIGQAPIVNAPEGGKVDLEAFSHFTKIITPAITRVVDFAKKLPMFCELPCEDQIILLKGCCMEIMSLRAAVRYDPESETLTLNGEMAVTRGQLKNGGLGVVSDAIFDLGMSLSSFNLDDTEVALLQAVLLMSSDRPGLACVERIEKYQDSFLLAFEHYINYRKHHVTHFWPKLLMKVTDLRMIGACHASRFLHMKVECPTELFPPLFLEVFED
Experimental: At the molecular level, the binding ability of the compound to thyroid hormone receptor β (THR β) was measured by AlphaScreen detection. Firstly, recombinant GST-THR β fusion proteins were constructed, followed by compound-receptor binding reactions in 384-well plates.

THR-α = target: T2, THR-α (Homo sapiens, UniProt P10827); test: in vitro agonist activity at the molecular level (AlphaScreen detection), THR-α; format: biochemical; settings: in vitro molecular evaluation system; for Emax: read-out: THR-α Rel % Activity of T3
T2 sequence (P10827 1-410 isoform P10827-2): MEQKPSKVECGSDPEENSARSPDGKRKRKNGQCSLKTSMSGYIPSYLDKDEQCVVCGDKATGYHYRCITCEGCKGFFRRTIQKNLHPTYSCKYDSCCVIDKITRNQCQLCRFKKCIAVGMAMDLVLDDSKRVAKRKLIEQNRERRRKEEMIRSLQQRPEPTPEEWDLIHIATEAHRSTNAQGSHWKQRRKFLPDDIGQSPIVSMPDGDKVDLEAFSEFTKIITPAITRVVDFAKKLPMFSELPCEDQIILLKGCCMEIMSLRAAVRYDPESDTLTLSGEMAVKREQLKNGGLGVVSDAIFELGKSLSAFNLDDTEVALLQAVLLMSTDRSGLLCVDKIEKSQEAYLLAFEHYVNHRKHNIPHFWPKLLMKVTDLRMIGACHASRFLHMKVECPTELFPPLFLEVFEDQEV

Row | Compound | pEC50 (THR-β) | Selectivity (THR-β) | Emax (THR-β) | pEC50 (THR-α) | Emax (THR-α)
1 | Cc1cc(-c2ccco2)nc2ccc(Oc3c(Cl)cc(-n4nc(C#N)c(=O)[nH]c4=O)cc3Cl)cc12 [Compound 15, 2-(3,5-Dichloro-4-((2-(furan-2-yl)-4-methylquinolin-6-yl)oxy)phenyl) -3,5-dioxo-2,3,4,5-tetrahydro-1,2,4-triazine-6-carbonitrile] | 7.14 | 3.9 | 84.3% | 6.55 | 62.5%
2 | Cc1cc(-c2ccoc2)nc2ccc(Oc3c(Cl)cc(-n4nc(C#N)c(=O)[nH]c4=O)cc3Cl)cc12 [Compound 17] | 6.53 | 4.2 | 73.7% | 5.91 | 57.6%
3 | Cc1cc(-c2cccs2)nc2ccc(Oc3c(Cl)cc(-n4nc(C#N)c(=O)[nH]c4=O)cc3Cl)cc12 [Compound 19, 2-(3,5-Dichloro-4-((2-(thiophen-2-yl) -4-methylquinolin-6-yl)oxy)phenyl) -3,5-dioxo-2,3,4,5-tetrahydro-1,2,4-triazine-6-carbonitrile] | 6.42 |  | 71.8% | < 4.30 | 
4 | Cc1cc(C2CCCCC2)nc2ccc(Oc3c(Cl)cc(-n4nc(N)c(=O)[nH]c4=O)cc3Cl)cc12 [Compound 134, 6-amino-2-(3,5-dichloro-4-((2-cyclohexyl-4-methylquinolin-6-yl)oxy)phenyl)-1,2,4-triazine-3,5(2H,4H)-dione] | 6.92 | 4.2 | 92.3% | 6.37 | 38.4%

These reach a higher pEC50 (THR-β). Values come first.

Row | pEC50 (THR-β) | Selectivity (THR-β) | Emax (THR-β) | pEC50 (THR-α) | Emax (THR-α) | Compound
5 | 7.50 | 7.85 | 76.3% | 6.61 | 67.5% | Nc1nn(-c2cc(Cl)c(Oc3ccc4nccc(Cl)c4c3)c(Cl)c2)c(=O)[nH]c1=O [Compound 99, 6-amino-2-(3,5-dichloro-4((4-chloroquinolin-6-yl)oxy)phenyl)-1,2,4-triazine-3,5(2H,4H)-dione]
6 | 8.08 | 6.89 | 83% | 7.24 | 62.7% | Cc1cc(-c2ccc(F)cc2)nc2ccc(Oc3c(Cl)cc(-n4nc(N)c(=O)[nH]c4=O)cc3Cl)cc12 [Compound 60, 6-amino-2-(3,5-dichloro-4-((2-(4-fluorophenyl)-4-methylquinolin-6-yl)oxy)phenyl)-1,2,4-triazine-3,5(2H,4H)-dione]
